Experimental data reported in patent US9862690B2, “Treatment of pulmonary and other conditions” (University of Pittsburgh—of the Commonwealth System of …, priority 2013, dated 2018).

Legend:
PMNs = test: PMN adhesion and transendothelial migration, cells of endotoxin-treated mice; assay type: in vivo; conditions: PMNs from peripheral blood of endotoxin-treated mice
Protocol: (§1) For additional in vitro studies, after the treatment described above alveolar macrophages were isolated from the BAL fluid and plated in DMEM+10% FBS. After 1 h, RNA was isolated and expression of the different genes was determined using real-time PCR; results were normalized to values for the housekeeping genes glyceraldehyde-3-phosphate dehydrogenase (GAPDH) and […]. […] In other experiments, PMNs were isolated from peripheral blood of endotoxin-treated mice by hetastarch exchange transfusion. PMN adhesion was assessed with the Cytoselect Leukocyte-Endothelium Adhesion Assay kit (CBA-210; Cell Biolabs) and transendothelial PMN migration was determined with the Cytoselect Leukocyte Transmigration Assay kit (CBA-212; Cell Biolabs).

[1] = system: lung epithelial cells (BEAS2B); test: IFN-γ or IL-4/IL-13 stimulated lung epithelial cells; assay type: cell-based; conditions: 10 ng/ml IFN-γ or IL-4/IL-13 for 6 h
Description: It suppressed the infiltration of inflammatory cells into the airspace and lung and attenuated the expression of cytokines, chemokines, and IgE in BALF and serum.

alveolar macrophages = test: Gene expression in alveolar macrophages isolated from BAL fluid of treated mice (real-time PCR); assay type: in vivo; conditions: mice given LPS then 25 mg/kg nebulized
Protocol: Induction of ALI by intratracheal injection of LPS (50 μg) was followed 30 min later by nebulization of PB141 (25 mg/kg) or vehicle (saline) and delivery to cage air via a micropump nebulizer. After another 5.5 h BAL fluid was obtained. Alveolar macrophages were isolated from the BAL fluid and plated in DMEM+10% FBS. After 1 h, RNA was isolated and expression of the indicated genes was determined using real-time PCR; results were normalized to values for the housekeeping genes glyceraldehyde-3-phosphate dehydrogenase (GAPDH) and […]. Data are representative of one of two independent experiments with n=6-8 mice per group; **P<0.01; ***P<0.001.
as §1

[2] = system: pulmonary fibrosis in mice; test: Pulmonary fibrosis model (bleomycin, asbestos or X-ray induced); assay type: in vivo
Protocol: Induction of pulmonary fibrosis by intratracheal injection of bleomycin sulphate (BLM; 0.05 units) was followed by nebulization of PB141 (25 mg/kg) or vehicle (saline) and delivery to cage air via a micropump nebulizer. After 21 days lung samples were obtained. (A) Lung hydroxyproline content. (B) Lung fibrinolysis. (C) Lung collagen content. (D) Lung TGF-β content. Data are representative of one of two independent experiments with n=5-7 mice per group; ** p<0.01, *** p<0.001.
Lung fibrosis was induced by methods previously reported in literature of the relevant art. Briefly, 50 μl of bleomycin sulfate in saline or 0.1 mg of NIEHS crocidolite asbestos (N 10 μm in length) was administered intratracheally into anesthetized mice. In some experiments fibrosis was induced by the following standard X-ray exposure procedure: Anesthetized mice at the age of 10-12 weeks were immobilized, with a lead shield excluding all but the thoracic cavity. Animals were then irradiated with a single dose of 14.5 Gy from a cesium source (J. L. Shepherd and Associates, San Fernando, Calif.) at a dose rate of 1.65 Gy/min LD50 for C57BL/6J mice is 14.5 Gy. At this dose, survival is sufficient to permit adequate numbers of animals for long-term analyses.
After induction of pulmonary fibrosis using the methods as described above, PB141 (25 mg/kg) dissolved in normal saline was delivered for 30 min via a micropump nebulizer (Buxco Research Systems, Wilmington, N.C.) fitted at the chamber inlet. After 21 days, bronchoalveolar lavage fluid (BALF) samples were obtained and analyzed for cellular infiltration by hemocytometer and differential staining of cells. Pulmonary fibrosis was assessed from lung homogenates by estimating total lung collagen content using the Sircol Collagen Assay kit (Biocolor) and hydroxyproline content using a hydroxyproline assay kit (BioVision, Mountain View, Calif.) according to the manufacturer's instructions. Lung histology sections were assessed by morphometry, hematoxylin and eosin (H&E) staining, and Masson's trichrome staining.

BEAS-2B cells = assay type: cell-based
Protocol: To evaluate cell viability, apoptosis, and cytotoxicity, the Apo Tox-Glo Triplex assay was used according to the manufacturer's instructions (Promega, Madison, Wis.). Briefly, the BEAS-2B cells were plated at 2×10^4 cells/well in 100 μl medium in an opaque walled, clear-bottomed, 96-well plate. After 24 hr culture, they were treated for a further indicated time with different concentrations of PB141 or PB157. At the end of the culture period, 20 μl viability/cytotoxicity reagent was added to each well, mixed by orbital shaking (300 r.p.m. for 30 s) and incubated for 30 min at 37° C. Fluorescence was then measured with excitation at 400 nm and emission at 505 nm to assess cell viability, and 485 nm excitation and 520 nm emission to assess cytotoxicity; both were quantified as relative fluorescence units (RFU). Then, 100 μl Caspase-Glo 3/7 reagent was added to each well, mixed by orbital shaking (300 r.p.m. for 30 s) and incubated for 30 min at room temperature. Luminescence was measured to assess caspase activation as a marker of apoptosis and quantified as relative luminescence units. Results for PB141 and PB157 were similar.

[3] = system: mice (lung, kidney, liver and other organs); test: Toxicity of long-term, high-dose nebulized delivery; assay type: in vivo; conditions: 25 mg/kg or 250 mg/kg aerosolized daily up to 30 days
Protocol: PB141 was delivered to mice by nebulization at doses of 25 or 250 mg/kg for up to 30 days. (A) Lungs were excised, sectioned, and examined histologically for evidence of inflammation or injury. (B) Potential kidney and liver injury were assessed by serum levels of creatinine, AST, and ALT. […] Acute lung injury was induced in mice by intratracheal administration of LPS. Thirty min later PBS or varying concentrations of PB141 were delivered into cage air by nebulization. Following sacrifice, nuclear proteins were isolated from lungs and used to determine DNA-binding activity of the p65 subunit of the pro-inflammatory transcription factor NF-κB.
PB141 (25 mg/kg or 250 mg/kg) was aerosolized to mice daily for up to 30 consecutive days. The standard dose used in efficacy studies is 25 mg/kg for 1-10 days. At the conclusion of each experiment blood was collected and the lungs were excised and examined histopathologically for evidence of injury or toxicity. Serum levels of creatinine and aspartate (AST) and alanine (ALT) aminotransferases were measured using enzyme-linked immunosorbent assay (ELISA) kits (R&D Systems, Minneapolis, Minn.) according to the manufacturer's instructions. At the end of 30 days' exposure, other organs were also excised and similarly examined (data not shown).

Question: With CC(=O)N[C@@H](CSC(CC(=O)CC(SC[C@H](NC(C)=O)C(=O)O)c1cnccn1)c1cnccn1)C(=O)O (stereo partly drawn) [PB141] as the compound, how does the PMN adhesion (PMNs) read?
Answer: decreased

Question: And the “Transendothelial PMN migration” value (PMNs)?
Answer: decreased

Question: And the Cytokine generation [1]?
Answer: inhibited

Question: What about the NO production [1] of the same compound?
Answer: inhibited

Question: What about the iNOS expression [1] of the same compound?
Answer: inhibited

Question: And the “Transcription of antioxidant genes in alveolar macrophages” value (alveolar macrophages)?
Answer: increased

Question: And the “Transcription of inflammatory genes in alveolar macrophages” value (alveolar macrophages)?
Answer: decreased

Question: And the Collagen production ([2]; 25 mg/kg nebulized, 21 days)?
Answer: effectively prevented

Question: And the Inflammatory cell infiltration ([2]; 25 mg/kg nebulized, 21 days)?
Answer: effectively prevented

Question: And the Myofibroblast differentiation ([2]; 25 mg/kg nebulized, 21 days)?
Answer: effectively prevented

Question: And the “Tolerability of the solution” value ([2]; even with intratracheal administration)?
Answer: well tolerated

Question: And the Pulmonary fibrosis ([2]; repeated pulmonary dosing, 25 mg/kg)?
Answer: significantly reduced

Question: And the Cytotoxicity (BEAS-2B cells)?
Answer: without exhibiting cytotoxicity

Question: What about the “Apoptosis (caspase 3/7 activation)” value (BEAS-2B cells; different concentrations, data not shown) of the same compound?
Answer: induced apoptosis

Question: What about the “Injury or toxicity (lung histopathology, serum creatinine, AST, ALT, other organs)” value [3] of the same compound?
Answer: No evidence of injury or toxicity
